“And” between values parts separate entries of the source, which are not always exact repeats. Identical values can stand only once. Like-named read-outs stand apart in the source and are kept apart here.
How the values were obtained:
AKR1C3 [1] = biological target: T1, AKR1C3 (Homo sapiens, UniProt P42330); assay: cell-based
T1 sequence (P42330 1-323): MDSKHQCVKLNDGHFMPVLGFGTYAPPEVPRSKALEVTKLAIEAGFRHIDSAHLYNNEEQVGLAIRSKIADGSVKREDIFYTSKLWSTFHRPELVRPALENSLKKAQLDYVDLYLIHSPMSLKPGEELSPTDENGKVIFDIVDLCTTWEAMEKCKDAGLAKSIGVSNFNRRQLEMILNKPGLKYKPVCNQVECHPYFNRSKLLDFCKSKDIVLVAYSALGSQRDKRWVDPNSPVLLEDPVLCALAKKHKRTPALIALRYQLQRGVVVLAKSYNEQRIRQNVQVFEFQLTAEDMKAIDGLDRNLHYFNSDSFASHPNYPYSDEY

[2] = Liver microsome incubation (HLM Phase I and Phase I + II), LC-MS/MS; type: in vitro ADME, human; conditions: for microsomal CLint: human, human liver microsomes
Procedure: Stock solutions of prespective AKR1C3 inhibitors were prepared in DMSO at 5 mM and were incubated with liver microsomes (0.1 mg/mL). Incubations were conducted at 37° C. in a shaking water bath for 10 minutes (microsomes). Incubation durations were selected based on time course study (microsomes) or published literature (recombinant enzymes). Prepared samples were analyzed using LC-MS/MS.

ER-β = ER-β (Homo sapiens, UniProt Q92731); assay: ER-β ligand binding domain competitive binding with [3H]Estradiol
ER-β, sequence (Q92731 264-498 limits assumed, species assumed): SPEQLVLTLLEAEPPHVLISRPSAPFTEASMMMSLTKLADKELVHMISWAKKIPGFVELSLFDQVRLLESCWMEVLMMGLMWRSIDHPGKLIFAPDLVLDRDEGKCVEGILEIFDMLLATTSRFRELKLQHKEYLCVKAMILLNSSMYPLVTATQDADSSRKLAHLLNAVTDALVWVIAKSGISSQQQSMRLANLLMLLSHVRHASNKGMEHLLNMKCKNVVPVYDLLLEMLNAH

ER-beta = biological target: T2, ER-beta (Homo sapiens, UniProt Q92731); assay: ER-beta transactivation (ERE-LUC luciferase) in HEK-293 cells; type: cell-based; conditions: for EC50: drug alone, read-out: Agonist ER-β; for IC50 / Antagonist ER-β, % of E2: antagonist mode; for IC50: in combination with estradiol, read-out: Antagonist ER-β;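 as to all read-outs here: HEK-293 cells transiently transfected with an ER-β expression plasmid and ERE-LUC reporter, firefly luciferase read-out normalized to co-transfected Renilla luciferase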
T2 construct: expressed in transfected cells; host or cells: HEK-293
T2 sequence (Q92731 whole entry, species assumed): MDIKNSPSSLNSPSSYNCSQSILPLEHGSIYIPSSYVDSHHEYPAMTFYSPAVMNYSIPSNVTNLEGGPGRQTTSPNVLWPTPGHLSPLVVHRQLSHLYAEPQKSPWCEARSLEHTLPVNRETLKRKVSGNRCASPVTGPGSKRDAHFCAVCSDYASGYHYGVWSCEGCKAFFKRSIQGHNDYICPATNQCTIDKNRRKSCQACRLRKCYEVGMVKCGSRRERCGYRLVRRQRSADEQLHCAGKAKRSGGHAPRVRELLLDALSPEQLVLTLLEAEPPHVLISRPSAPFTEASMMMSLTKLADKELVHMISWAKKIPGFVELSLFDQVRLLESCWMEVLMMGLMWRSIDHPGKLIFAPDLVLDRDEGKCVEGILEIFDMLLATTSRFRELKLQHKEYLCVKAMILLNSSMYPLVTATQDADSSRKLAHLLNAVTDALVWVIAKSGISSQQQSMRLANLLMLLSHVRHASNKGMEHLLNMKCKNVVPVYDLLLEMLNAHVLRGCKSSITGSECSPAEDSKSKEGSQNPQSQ

AKR1C3 [3] = biological target: T1, AKR1C3; assay: Purified AKR1C3 enzyme assay, [14C]-A'dione to testosterone, TLC based; type: biochemical; set-up: GST (N); made in house; host or cells: bacterial culture, IPTG induced (E. coli BL21-DE3 is named only for the crystallography preparation)
Procedure: Perkin Elmer; […] American Radiolabeled Chemicals, St. Louis, Mo.). The reaction was stopped by the addition of 400 μl ethyl acetate, vortexed, and spun for […] at 2000 rpm. The upper layer was transferred to a new tube and air dried. The pellet was resuspended in 25 μl of methanol, spotted on TLC plates and fractionated in TLC chamber with 3:1 chloroform:ethyl acetate. Once the mobile phase reached the top, the plates were dried and exposed to a phosphoimager screen overnight. […] Perkin Elmer) was incubated at 37° C. for 60 min. The reaction was stopped by the addition of 400 μl ethyl acetate, vortexed, and spun for […] at 2000 rpm. The upper layer was transferred to a new tube and air dried. The pellet was resuspended in 25 μl of methanol, spotted on TLC plates and fractionated in TLC chamber with 3:1 chloroform:ethyl acetate. Once the mobile phase reached the top, the plates were dried and exposed to a phosphoimager screen overnight.

ER-alpha = biological target: T3, ER-alpha (Homo sapiens, UniProt P03372); assay: ER-alpha transactivation (ERE-LUC luciferase) in HEK-293 cells; type: cell-based; conditions: for EC50 / Agonist ER-α, % of E2: agonist mode; for EC50: drug alone, read-out: Agonist ER-α; for IC50: in combination with estradiol, read-out: Antagonist ER-α;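 as to all read-outs here: HEK-293 cells co-transfected with an ER-alpha expression plasmid, an ERE-driven firefly luciferase reporter and a CMV Renilla control, with the firefly signal normalized to Renilla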
T3 construct: expressed in transfected cells; host or cells: HEK-293
T3 sequence (P03372 1-595): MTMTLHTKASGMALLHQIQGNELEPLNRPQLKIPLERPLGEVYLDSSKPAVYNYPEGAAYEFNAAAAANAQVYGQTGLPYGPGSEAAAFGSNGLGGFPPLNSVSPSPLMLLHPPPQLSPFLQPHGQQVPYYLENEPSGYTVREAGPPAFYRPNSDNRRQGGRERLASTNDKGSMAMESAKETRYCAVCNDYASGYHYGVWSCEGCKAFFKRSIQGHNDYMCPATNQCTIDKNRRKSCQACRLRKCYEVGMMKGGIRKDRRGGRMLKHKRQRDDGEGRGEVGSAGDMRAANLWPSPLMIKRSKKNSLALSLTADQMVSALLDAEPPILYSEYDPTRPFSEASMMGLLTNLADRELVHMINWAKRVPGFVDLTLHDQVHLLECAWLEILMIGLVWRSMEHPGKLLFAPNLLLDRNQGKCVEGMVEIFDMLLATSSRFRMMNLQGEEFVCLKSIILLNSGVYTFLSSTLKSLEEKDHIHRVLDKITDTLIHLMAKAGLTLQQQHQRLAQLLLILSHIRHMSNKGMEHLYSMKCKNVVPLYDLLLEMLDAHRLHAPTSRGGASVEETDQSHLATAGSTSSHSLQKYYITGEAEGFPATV

[4] = HLM Phase I + II, read-out: HLM Phase I + II CLint
[5] = HLM Phase I, read-out: HLM Phase I CLint
[6] = read-out: % inhibition from control HSD-5 (10 uM)
[7] = 10 μM inhibitor, purified AKR1C3 TLC based enzyme assay, read-out: AKR1C3 inhibition at 10 μM

IC50 (AKR1C3 [1])	EC50 (ER-beta; agonist mode)	inhibition at 10 µM (AKR1C3 [3]; [6])	inhibition at 10 µM (AKR1C3 [3]; [7])	Compound	also measured
–	–	–	0%	COc1ccc2c(=O)n(-c3ccc(CO)c(OC)c3)cc(-c3ccc(C(F)(F)F)cc3)c2c1 [Compound 25, 2-(4-(hydroxymethyl)-3-methoxyphenyl)-6-methoxy-4-(4-(trifluoromethyl)phenyl)isoquinolin-1(2H)-one]	–
–	> 10000 nM	20%	20%	CNS(=O)(=O)c1ccc(-c2cn(-c3ccc(O)cc3)c(=O)c3ccc(O)cc23)cc1 [Compound 36, 4-(6-hydroxy-2-(4-hydroxyphenyl)-1-oxo-1,2-dihydroisoquinolin-4-yl)-N-methylbenzenesulfonamide]	EC50 (ER-alpha): > 10000 nM; IC50 (ER-alpha; antagonist mode): > 10000 nM
–	> 10000 nM	45%	45%	CS(=O)(=O)c1ccc(-c2cn(-c3ccc(O)cc3)c(=O)c3ccc(O)cc23)cc1 [Compound 37, 6-hydroxy-2-(4-hydroxyphenyl)-4-(4-(methylsulfonyl)phenyl)isoquinolin-1(2H)-one]	HLM Phase I T-1/2 (min) ([2]; HLM Phase I): stable; HLM Phase I + II T-1/2 ([2]; HLM Phase I + II): 3.8 min; microsomal CLint [2, 4]: 183 µL/min/mg; EC50 (ER-alpha): > 10000 nM; IC50 (ER-alpha; antagonist mode): > 10000 nM
–	> 10000 nM	42%	42%	O=C(O)c1ccc(-c2cn(-c3ccc(O)cc3)c(=O)c3ccc(O)cc23)cc1 [Compound 43, 4-(6-hydroxy-2-(4-hydroxyphenyl)-1-oxo-1,2-dihydroisoquinolin-4-yl)benzoic acid]	EC50 (ER-alpha): > 10000 nM; IC50 (ER-alpha; antagonist mode): > 10000 nM; IC50 (ER-beta): > 10000 nM
–	–	44%	44%	O=c1c2ccc(O)cc2c(-c2cc(F)c(F)c(F)c2)cn1-c1ccc(O)cc1 [Compound 79, 6-hydroxy-2-(4-hydroxyphenyl)-4-(3,4,5-trifluorophenyl)isoquinolin-1(2H)-one]	Agonist ER-α, % of E2 (ER-alpha; @1000 nM): 32.6% of E2 @1000 nM; Antagonist ER-α, % of E2 (ER-alpha; antagonist mode, @10k nM): 51% of E2 @10k nM; Agonist ER-β, % of E2 (ER-beta; agonist mode, @1000 nM): 45.0% of E2 @1000 nM; Antagonist ER-β, % of E2 (ER-beta; @10k nM): 45.3% of E2 @10k nM
141 nM	> 10000 nM	86%	86%	N#Cc1cc(O)cc2c(-c3cc(F)c(F)c(F)c3)cn(-c3ccc(O)cc3)c(=O)c12 [Compound 85, 6-hydroxy-2-(4-hydroxyphenyl)-1-oxo-4-(3,4,5-trifluorophenyl)-1,2-dihydroisoquinoline-8-carbonitrile]	Agonist ER-α, % of E2 (ER-alpha; @10k nM): 36.5% of E2 @10k nM; IC50 (ER-alpha; antagonist mode): > 10000 nM; Antagonist ER-β, % of E2 (ER-beta; @1000 nM): 59.7% of E2 @1000 nM
–	–	20%	20%	COC(=N)c1cc(O)cc2c(-c3cc(F)c(F)c(F)c3)cn(-c3ccc(O)cc3)c(=O)c12 [Compound 100, Methyl 6-hydroxy-2-(4-hydroxyphenyl)-1-oxo-4-(3,4,5-trifluorophenyl)-1,2-dihydroisoquinoline-8-carbimidate]	–
–	–	0%	0%	NC(=O)c1cc(O)cc2c(-c3cc(F)c(F)c(F)c3)cn(-c3ccc(O)cc3)c(=O)c12 [Compound 100A, 6-hydroxy-2-(4-hydroxyphenyl)-1-oxo-4-(3,4,5-trifluorophenyl)-1,2-dihydroisoquinoline-8-carboxamide]	–
–	–	10%	10%	N#Cc1cc(O)cc2c(-c3ccc(C(F)(F)F)c(F)c3)cn(-c3ccc(O)cc3)c(=O)c12 [Compound 102, 4-(3-Fluoro-4-(trifluoromethyl)phenyl)-6-hydroxy-2-(4-hydroxyphenyl)-1-oxo-1,2-dihydroisoquinoline-8-carbonitrile]	–
–	–	0%	0%	COC(=N)c1cc(O)cc2c(-c3ccc(C(F)(F)F)c(F)c3)cn(-c3ccc(O)cc3)c(=O)c12 [Compound 102A, Methyl 4-(3-fluoro-4-(trifluoromethyl)phenyl)-6-hydroxy-2-(4-hydroxyphenyl)-1-oxo-1,2-dihydroisoquinoline-8-carbimidate]	–
–	–	0%	0%	NC(=O)c1cc(O)cc2c(-c3ccc(C(F)(F)F)c(F)c3)cn(-c3ccc(O)cc3)c(=O)c12 [Compound 102B, 4-(3-fluoro-4-(trifluoromethyl)phenyl)-6-hydroxy-2-(4-hydroxyphenyl)-1-oxo-1,2-dihydroisoquinoline-8-carboxamide]	–
–	–	5%	–	COC(=O)c1ccc(-n2ccc3cc(O)ccc3c2=O)cc1CBr [Compound 104A, methyl 2-(bromomethyl)-4-(6-hydroxy-1-oxoisoquinolin-2(1H)-yl)benzoate]	–
241 nM	–	–	–	NC(=O)c1cccc(-n2cc(-c3ccc(C(F)(F)F)c(F)c3)c3cc(O)ccc3c2=O)c1 [Compound 214, 3-(4-(3-fluoro-4-(trifluoromethyl)phenyl)-6-hydroxy-1-oxoisoquinolin-2(1H)-yl)benzamide]	–
154 nM	–	–	–	O=C(O)c1cccc(Nc2ccc(C(F)(F)F)cc2)c1 [DKB-476-065]	–
> 10000 nM	–	–	–	C[C@@H]1O[C@@H](OC[C@H]2O[C@@H](Oc3c(-c4ccc(O)c(O)c4)oc4cc(O)cc(O)c4c3=O)[C@H](O)[C@@H](O)[C@@H]2O)[C@H](O)[C@H](O)[C@H]1O [Rutin, reference compound]	–

Compound	IC50 (AKR1C3 [1])	EC50 (ER-beta; agonist mode)	inhibition at 10 µM (AKR1C3 [3]; [6])	inhibition at 10 µM (AKR1C3 [3]; [7])	also measured
COc1cc(C=CC(=O)O)cc(OC)c1OC [3,4,5 trimethoxy cinnamic acid, reference compound]	> 10000 nM	–	–	–	–
O=c1c2ccc(O)cc2c(-c2ccccc2)cn1-c1ccc(O)cc1 [Compound 15a, 6-hydroxy-2-(4-hydroxyphenyl)-4-phenylisoquinolin-1(2H)-one]	16100 nM	> 10000 nM	0%	–	HLM Phase I T-1/2 ([2]; HLM Phase I): 152.8 min; HLM Phase I + II T-1/2 ([2]; HLM Phase I + II): 23.3 min; microsomal CLint [2, 4]: 29.7 µL/min/mg; microsomal CLint [2, 5]: 4.5 µL/min/mg; Ki (ER-β): 130 nM; IC50 (ER-beta): 918 nM
COc1ccc(-c2cn(-c3ccc(O)cc3)c(=O)c3c(O)cc(O)cc23)cc1 [Compound 15g, 6,8-dihydroxy-2-(4-hydroxyphenyl)-4-(4-methoxyphenyl)isoquinolin-1(2H)-one]	4520 nM	> 10000 nM	40%	–	HLM Phase I CLint ([2]; HLM Phase I): 35.8 µL/min/mg; HLM Phase I T-1/2 ([2]; HLM Phase I): 16.5 min and 19.32 min; HLM Phase I + II T-1/2 ([2]; HLM Phase I + II): 1.6 min; microsomal CLint [2, 4]: 422 µL/min/mg; microsomal CLint [2, 5]: 42.1 µL/min/mg; Ki (ER-β): 2.77 nM; IC50 (ER-beta): 22.4 nM
C/C=C/c1cn(-c2ccc(O)cc2)c(=O)c2c(O)cc(O)cc12 [Compound 15i]	–	> 10000 nM	10%	–	Ki (ER-β): 1.66 nM; EC50 (ER-alpha): > 10000 nM; IC50 (ER-alpha; antagonist mode): 1970 nM and 1790 nM; IC50 (ER-beta): 32.2 nM and 66.3 nM

Reference: patent publication US20130116277A1, “ALDO-KETO REDUCTASE SUBFAMILY 1C3 (AKR1C3) INHIBITORS” (priority 2007, published 2013)
